Laboratory results taken from patent publication US20260250247A1, “NOVEL INDOLINE DERIVATIVE AND USE THEREOF” (CK REGEON INC., priority 2023, published 2026).

System: mice induced with metabolic dysfunction-associated steatohepatitis (MASH)
Test: Liver fibrosis score from collagen staining (Picrosirius red) in MASH mice
Assay type: in vivo, C57BL/6N mice
Details: 25 mg/kg/day orally for 4 weeks; mean±SD; normal group 0, MASH group 3.11
Procedure: Five-week-old wild-type male C57BL/6N mice were purchased from Orient Bio Co., Ltd. They were allowed to acclimate to the laboratory environment for one week. Mice weighing 18-20 g on average were used in the experiment. To ensure ethical and scientific validity and efficient management of animal experiments, the experiment was conducted with the approval of the Institutional Review Board (IACUC-A-202205-1472-01) of Severance Hospital, Yonsei University College of Medicine.
The mice were divided into a normal group (NCD) and a high-fat diet group (HFD). The normal group (NCD) was fed a normal chow diet (NCD, Teklad Global 18% protein rodent diet), and the high-fat diet group (HFD) was fed a high-fat diet (HFD, D12492) in which fat accounted for 60% of the total calories, for 8 weeks.
Mice induced with metabolic dysfunction-associated steatohepatitis (MASH) (hereinafter, referred to as MASH or MASH group) were prepared by administering CCl4 intraperitoneally twice a week for 4 weeks after feeding the high-fat diet (HFD) for 8 weeks. The […] was diluted with corn oil at a ratio of 1:19 and injected at a dosage of 2 mL/kg. The normal group (NOD) was administered the same volume of physiological saline.
The animals were divided into 7 groups, each with 10 animals.
After preparing the 7 groups, the animals were euthanized using carbon dioxide and the liver tissues were extracted. The extracted tissues were fixed in 4% neutral paraformaldehyde and embedded in paraffin to prepare sections. The paraffin sections were cut to 4-μm thickness, deparaffinized, and then rehydrated. The hydrated sections were stained with a Weigert's iron hematoxylin solution for 8 minutes and then with Picrosirius red for 1 hour. Collagen fibers were stained red and nuclei were stained blue. The sections were photographed using a bright-field microscope (Nikon TE-2000U).
The main mechanism of nonalcoholic fatty liver disease is the induction of hepatic stellate cell activation, which induces collagen production and leads to liver fibrosis due to collagen accumulation. From the result of collagen staining (Picrosirius red) for observing the total amount of collagen deposition in Test Example 3-6, the liver fibrosis score was analyzed. Stages 2 to 3 were diagnosed as nonalcoholic fatty liver disease (MASH) (M. Brunt et al., 2005).
All quantitative data are presented as mean±standard deviation (SD). In each experiment, all measurements were made at least three times, and data were analyzed using the two-tailed, unpaired Student's t test. P values of <0.05 were considered statistically significant.

N#Cc1ccc2c(c1)/C(=C1/Nc3ccccc3C1=O)C(=O)N2 [5-cyanoindirubin]
Degree of liver fibrosis (fibrosis score): 2.89
